In PubChem BioAssay AID272 (DTP/NCI, 2004) one finds T/C data, which are given here for 13 compounds.

Several values for one entry are separate records, joined by “and”; a condition that tells them apart may be missing. Identical values can stand only once. Records with an inconclusive call do not appear.

For the assay, the system named is Lewis lung carcinoma i.m., BDF1 mice, T/C %. The assay is described as follows: NCI In Vivo Anticancer Drug Screen. Data for tumor model Lewis Lung Carcinoma (intramuscular) in B6D2F1 (BDF1) mice. The procedure:
The antitumor activity of compounds was measured in mice bearing transplantable tumors. Survival or tumor size were measured and the results are expressed as the measurement made in the treated group (T) divided by the measurement made in the vehicle treated control group (C). The tumor model used in this assay is Lewis Lung Carcinoma (intramuscular) in B6D2F1 (BDF1) mice

Where [1] appears, read: endpoint: median survival time, dose: 0.25 mg/kg/injection, schedule: Q01DX011 (ip), vehicle: water, higher = longer survival.
The mark [2] stands for this setting: endpoint: mean tumor weight (est.), dose: 12.5 mg/kg/injection, schedule: Q01DX011 (ip), vehicle: saline with Tween-80, higher = larger tumour.
Where [3] appears, read: endpoint: mean tumor weight (est.), dose: 25.0 mg/kg/injection, schedule: Q01DX011 (ip), vehicle: saline with Tween-80, higher = larger tumour.
Setting [4] is: endpoint: median survival time, dose: 12.5 mg/kg/injection, schedule: Q01DX011 (ip), vehicle: saline with Tween-80, higher = longer survival.
Where [5] appears, read: endpoint: median survival time, dose: 25.0 mg/kg/injection, schedule: Q01DX011 (ip), vehicle: saline with Tween-80, higher = longer survival.

Take `COc1cccc2c1C(=O)c1c(O)c3c(c(O)c1C2=O)C[C@@](O)(C(=O)CO)C[C@@H]3OC1CC(N)C(O)C(C)O1` (stereo partly specified): the T/C was 100 % of control and 120 % of control under setting [1]; 100 % of control and 102 % of control (endpoint: median survival time, dose: 0.65 mg/kg/injection, schedule: Q03HX008 (ip), vehicle: water, higher = longer survival); 123 % of control (endpoint: median survival time, dose: 1.08 mg/kg/injection, schedule: Q03HX008 (ip), vehicle: water, higher = longer survival); 26 % of control (endpoint: median survival time, dose: 1.8 mg/kg/injection, schedule: Q03HX008 (ip), vehicle: water, higher = longer survival); 17 % of control (endpoint: median survival time, dose: 3.0 mg/kg/injection, schedule: Q03HX008 (ip), vehicle: water, higher = longer survival).
For the compound `CCCCOc1ccc(NC(N)=Nc2ccc(Cl)cc2)cc1`, the T/C runs as follows: (endpoint: mean tumor weight (est.), dose: 3.12 mg/kg/injection, schedule: Q01DX011 (ip), vehicle: saline with Tween-80, higher = larger tumour) 118 % of control; (endpoint: mean tumor weight (est.), dose: 6.25 mg/kg/injection, schedule: Q01DX011 (ip), vehicle: saline with Tween-80, higher = larger tumour) 101 % of control; under setting [2], 67 % of control; under setting [3], 58 % of control; (endpoint: median survival time, dose: 3.12 mg/kg/injection, schedule: Q01DX011 (ip), vehicle: saline with Tween-80, higher = longer survival) 97 % of control; (endpoint: median survival time, dose: 6.25 mg/kg/injection, schedule: Q01DX011 (ip), vehicle: saline with Tween-80, higher = longer survival) 123 % of control. In addition, the T/C is, setting by setting: under setting [4], 102 % of control; under setting [5], 104 % of control.
In the case of `CSc1nc(N)cc(NC(=O)CCl)n1`, the T/C runs as follows: (endpoint: mean tumor weight (est.), dose: 25.0 mg/kg/injection, schedule: Q01DX011 (ip), vehicle: saline, higher = larger tumour) 92 % of control; (endpoint: mean tumor weight (est.), dose: 50.0 mg/kg/injection, schedule: Q01DX011 (ip), vehicle: saline, higher = larger tumour) 69 % of control; (endpoint: mean tumor weight (est.), dose: 100.0 mg/kg/injection, schedule: Q01DX011 (ip), vehicle: saline, higher = larger tumour) 35 % of control.
With `CCCCCCCCCCCCCCCC(=O)N(C/C=C/CN(CCCN(C)C)C(=O)CCCCCCCCCCCCCCC)CCCN(C)C`, the T/C reads like this: under setting [2], 44 % of control; under setting [4], 92 % of control.
As to `COc1cccc2c1C(=O)c1c(O)c3c(c(O)c1C2=O)C[C@@](O)(C(C)=O)C[C@@H]3OC1CC(N)C(O)C(C)O1` (stereo partly specified), the T/C under setting [1] is 93 % of control; the T/C (endpoint: median survival time, dose: 0.5 mg/kg/injection, schedule: Q01DX011 (ip), vehicle: water, higher = longer survival) is 106 % of control and 117 % of control; the T/C (endpoint: median survival time, dose: 1.0 mg/kg/injection, schedule: Q01DX011 (ip), vehicle: water, higher = longer survival) is 107 % of control.
On to `Nc1cc(S(N)(=O)=O)ccc1SSc1ccc(S(N)(=O)=O)cc1N`, for which the T/C is 65 % of control (endpoint: mean tumor weight (est.), dose: 62.5 mg/kg/injection, schedule: Q01DX011 (ip), vehicle: saline with Tween-80, higher = larger tumour); 24 % of control (endpoint: mean tumor weight (est.), dose: 125.0 mg/kg/injection, schedule: Q01DX011 (ip), vehicle: saline with Tween-80, higher = larger tumour); 103 % of control (endpoint: median survival time, dose: 62.5 mg/kg/injection, schedule: Q01DX011 (ip), vehicle: saline with Tween-80, higher = longer survival); 98 % of control (endpoint: median survival time, dose: 125.0 mg/kg/injection, schedule: Q01DX011 (ip), vehicle: saline with Tween-80, higher = longer survival).
As for `O=c1[nH]cc(F)c(=O)[nH]1`, the T/C is 37 % of control (endpoint: mean tumor weight (est.), dose: 10.0 mg/kg/injection, schedule: Q01DX011 (ip), vehicle: saline with Tween-80, higher = larger tumour); 9 % of control (endpoint: mean tumor weight (est.), dose: 20.0 mg/kg/injection, schedule: Q01DX011 (ip), vehicle: saline with Tween-80, higher = larger tumour); 93 % of control (endpoint: mean tumor weight, dose: 5.0 mg/kg/injection, schedule: Q01DX011 (ip), vehicle: other, higher = larger tumour); 71 % of control (endpoint: mean tumor weight, dose: 5.0 mg/kg/injection, schedule: Q01DX011 (ip), vehicle: saline, higher = larger tumour); 46 % of control (endpoint: mean tumor weight, dose: 10.0 mg/kg/injection, schedule: Q01DX011 (ip), vehicle: other, higher = larger tumour); 51 % of control and 57 % of control (endpoint: mean tumor weight, dose: 10.0 mg/kg/injection, schedule: Q01DX011 (ip), vehicle: saline, higher = larger tumour). Moreover, the T/C is, setting by setting: (endpoint: mean tumor weight, dose: 20.0 mg/kg/injection, schedule: Q01DX011 (ip), vehicle: other, higher = larger tumour) 18 % of control; (endpoint: mean tumor weight, dose: 20.0 mg/kg/injection, schedule: Q01DX011 (ip), vehicle: saline, higher = larger tumour) 5 % of control; (endpoint: median survival time, dose: 5.0 mg/kg/injection, schedule: Q01DX011 (ip), vehicle: other, higher = longer survival) 100 % of control; (endpoint: median survival time, dose: 6.3 mg/kg/injection, schedule: Q04DX004 (ip), vehicle: saline, higher = longer survival) 112 % of control; (endpoint: median survival time, dose: 10.0 mg/kg/injection, schedule: Q01DX009 (ip), vehicle: saline, higher = longer survival) 112 % of control; (endpoint: median survival time, dose: 10.0 mg/kg/injection, schedule: Q01DX011 (ip), vehicle: other, higher = longer survival) 96 % of control. In addition, the T/C (endpoint: median survival time, dose: 12.5 mg/kg/injection, schedule: Q04DX004 (ip), vehicle: saline, higher = longer survival) was 116 % of control; the T/C (endpoint: median survival time, dose: 20.0 mg/kg/injection, schedule: Q01DX009 (ip), vehicle: saline, higher = longer survival) is 119 % of control; the T/C (endpoint: median survival time, dose: 20.0 mg/kg/injection, schedule: Q01DX011 (ip), vehicle: other, higher = longer survival) is 122 % of control; the T/C (endpoint: median survival time, dose: 25.0 mg/kg/injection, schedule: Q04DX004 (ip), vehicle: saline, higher = longer survival) was 108 % of control; the T/C (endpoint: median survival time, dose: 50.0 mg/kg/injection, schedule: Q04DX004 (ip), vehicle: saline, higher = longer survival) was 89 % of control.
Turning to `CCCCCCCCCCCC(c1ccccc1)[N+](C)(C)C` (stereo unspecified), the T/C was 89 % of control (endpoint: mean tumor weight (est.), dose: 2.0 mg/kg/injection, schedule: Q01DX011 (ip), vehicle: saline, higher = larger tumour); 76 % of control (endpoint: mean tumor weight (est.), dose: 4.0 mg/kg/injection, schedule: Q01DX011 (ip), vehicle: saline, higher = larger tumour); 104 % of control (endpoint: median survival time, dose: 2.0 mg/kg/injection, schedule: Q01DX011 (ip), vehicle: saline, higher = longer survival); 108 % of control (endpoint: median survival time, dose: 4.0 mg/kg/injection, schedule: Q01DX011 (ip), vehicle: saline, higher = longer survival).
On to `N[C@H](C(=O)O)[C@H]1ON=C(Cl)[C@@H]1O`, for which the T/C is, setting by setting: (endpoint: median survival time, dose: 8.0 mg/kg/injection, schedule: Q01DX013 (ip), vehicle: saline, higher = longer survival) 92 % of control; (endpoint: median survival time, dose: 16.0 mg/kg/injection, schedule: Q01DX013 (ip), vehicle: saline, higher = longer survival) 107 % of control.
For `O=c1ccc2nc3ccccc3sc-2c1`, the T/C under setting [2] is 73 % of control; the T/C under setting [3] was 75 % of control; the T/C (endpoint: mean tumor weight (est.), dose: 50.0 mg/kg/injection, schedule: Q01DX011 (ip), vehicle: saline with Tween-80, higher = larger tumour) was 78 % of control; the T/C (endpoint: mean tumor weight (est.), dose: 100.0 mg/kg/injection, schedule: Q01DX011 (ip), vehicle: saline with Tween-80, higher = larger tumour) was 42 % of control; the T/C under setting [5] was 89 % of control.
In the case of `c1ccc(-c2csc3c4ccccc4c4ccccc4[n+]23)cc1`, the T/C is 102 % of control (endpoint: mean tumor weight (est.), dose: 0.5 mg/kg/injection, schedule: Q01DX011 (ip), vehicle: saline with Tween-80, higher = larger tumour); 61 % of control (endpoint: mean tumor weight (est.), dose: 2.0 mg/kg/injection, schedule: Q01DX011 (ip), vehicle: saline with Tween-80, higher = larger tumour); 89 % of control (endpoint: median survival time, dose: 0.5 mg/kg/injection, schedule: Q01DX011 (ip), vehicle: saline with Tween-80, higher = longer survival); 93 % of control (endpoint: median survival time, dose: 2.0 mg/kg/injection, schedule: Q01DX011 (ip), vehicle: saline with Tween-80, higher = longer survival).
`COc1ccc(N=O)c(O)c1`: the T/C (endpoint: median survival time, dose: 25.0 mg/kg/injection, schedule: Q01DX011 (ip), vehicle: saline, higher = longer survival) is 97 % of control; the T/C (endpoint: median survival time, dose: 50.0 mg/kg/injection, schedule: Q01DX011 (ip), vehicle: saline, higher = longer survival) is 100 % of control; the T/C (endpoint: median survival time, dose: 100.0 mg/kg/injection, schedule: Q01DX011 (ip), vehicle: saline, higher = longer survival) is 110 % of control.
`Cc1c2c(ccc3ccccc32)c[n+]2ccccc12`: the T/C runs as follows: (endpoint: mean tumor weight (est.), dose: 2.5 mg/kg/injection, schedule: Q01DX011 (ip), vehicle: saline, higher = larger tumour) 60 % of control; (endpoint: mean tumor weight (est.), dose: 5.0 mg/kg/injection, schedule: Q01DX011 (ip), vehicle: saline, higher = larger tumour) 112 % of control; (endpoint: mean tumor weight (est.), dose: 10.0 mg/kg/injection, schedule: Q01DX011 (ip), vehicle: saline, higher = larger tumour) 65 % of control; (endpoint: median survival time, dose: 2.5 mg/kg/injection, schedule: Q01DX011 (ip), vehicle: saline, higher = longer survival) 107 % of control; (endpoint: median survival time, dose: 5.0 mg/kg/injection, schedule: Q01DX011 (ip), vehicle: saline, higher = longer survival) 92 % of control; (endpoint: median survival time, dose: 10.0 mg/kg/injection, schedule: Q01DX011 (ip), vehicle: saline, higher = longer survival) 94 % of control.
